Paper PMC8165606, “Effects of Natural Monoamine Oxidase Inhibitors on Anxiety-Like Behavior in Zebrafish” (Frontiers in Pharmacology, 2021)
Where a name gives a salt, the structure may show the parent alone. Read-outs that look alike come from different tables or passages of the source.

Columns and labels:
[1] = system: zebrafish; settings: for NTT time spent at the top and bottom: 20 min treatment, 5 min test
Procedure: Adult male and female wild-type zebrafish were treated with the compounds for 20 min in a final volume of 50 ml in a 250-ml treatment beaker, one fish at a time. […] If not, the concentration was reduced until no obvious signs of tolerability problems (e.g., seizure-like tail or body movement) were observed.
Following compound treatment in a 250 ml beaker, the fish were briefly rinsed in fresh system water, and then immediately transferred to a trapezoidal tank (14.6 cm height x 5.5 cm width x 27.9 cm top length and x 23.6 cm bottom length) filled with 1.5 L system water (Figure 1B). The behavior of the fish was monitored for the next 5 min by using the Noldus EthoVision XT system (Wageningen, Netherlands), with the camera placed approximately 1 m from the test tank (Figure 1C). The water-filled part of the tank (11.5 cm height) was virtually divided into top, center, and bottom (Figure 1B). The average time spent at the top and bottom portions of the tank was analyzed to determine the anxiety-like behavior of fish. […] The experimenters were blind to the test conditions. A minimum of 12 fish (6 females and 6 males) per condition were used for the study.
The behavioral findings were analyzed in 1 min bins using two-way repeated measures ANOVA with Dunnett post hoc analysis. The analyses were conducted by using GraphPad Prism v8.2.1 (GraphPad Software, San Diego, CA, United States).

[2] = target: T1, MAO A (Homo sapiens, UniProt P21397); test: MAO-Glo two-step bioluminescent assay, MAO A; format: biochemical; settings: for Selectivity between MAO A and B: present study
T1 sequence (P21397 1-527): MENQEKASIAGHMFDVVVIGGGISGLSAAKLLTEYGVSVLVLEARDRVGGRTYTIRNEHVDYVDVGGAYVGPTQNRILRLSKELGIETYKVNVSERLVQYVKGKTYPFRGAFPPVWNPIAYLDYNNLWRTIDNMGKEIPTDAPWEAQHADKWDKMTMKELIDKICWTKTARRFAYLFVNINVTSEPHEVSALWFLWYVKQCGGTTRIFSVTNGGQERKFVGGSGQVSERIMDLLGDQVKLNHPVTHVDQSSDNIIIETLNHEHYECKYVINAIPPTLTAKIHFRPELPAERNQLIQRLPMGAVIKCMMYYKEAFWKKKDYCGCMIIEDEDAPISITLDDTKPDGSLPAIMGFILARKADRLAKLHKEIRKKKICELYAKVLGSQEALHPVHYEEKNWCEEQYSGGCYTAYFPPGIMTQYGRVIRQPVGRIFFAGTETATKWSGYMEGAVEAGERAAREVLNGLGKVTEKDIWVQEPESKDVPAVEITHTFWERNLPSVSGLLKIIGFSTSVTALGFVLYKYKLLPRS
Excerpt: (§1) Fluostar Omega 96 Microplate reader (BMG LABTECH GmbH, Ortenberg, Germany) was used to measure the luminescent signal and to determine the IC50 (half maximal inhibitory concentration).

[3] = system: zebrafish brain; test: Ex vivo bioavailability assay in fish brain (UPLC-HRMS or GC/MS); settings: relative brain level per 1 mg/L
Procedure: The fish were decapitated at the level of the gills by using a surgical knife. The head was turned dorsal side down, and, soft tissue was removed from the ventral side of the skull using two forceps until the base of the skull was exposed. The skull was broken open, and the bone from the ventral side of the brain was removed. The brain was then placed in a microcentrifuge tube, weighed, snap-frozen in liquid nitrogen, and stored at −80°C until the analysis.
Briefly, on the day of analysis, the brain samples were defrosted, resuspended in a methanol solution (2:1 [v/v] methanol:MilliQ water), and homogenized with vigorous agitation and ultrasonication (5 min each). The homogenate was centrifuged at 15,000 x rpm for 10 min, and the supernatant was analyzed by using a UPLC-Q Exactive Orbitrap-HRMS system (Thermo Fisher Scientific™, Bremen, Germany) for all compounds except for TMN, which was analyzed by gas chromatography/mass spectrometry (GC/MS) system. Chromatographic separation was achieved on a Synergi™ 4-µm Hydro-RP 80 Å, L.C. […]
For TMN, the Agilent GC/MS system (Agilent, Santa Clara, CA, United States) was used, because it is an apolar aromatic compound that could not be ionized for the detection by the UPLC-Q Exactive Orbitrap-HRMS system. […] The results were quantified using Agilent MS Workstation software (v6.9.3).

[4] = system: norepinephrine transporter; test: Pilot in vitro norepinephrine transporter binding (data not shown); settings: pilot study in vitro
[5] = target: T2, MAO B (Homo sapiens, UniProt P27338); test: MAO-Glo two-step bioluminescent assay, MAO B; format: biochemical; settings: mean ± SEM; substrate 3 µM
T2 sequence (P27338 1-520): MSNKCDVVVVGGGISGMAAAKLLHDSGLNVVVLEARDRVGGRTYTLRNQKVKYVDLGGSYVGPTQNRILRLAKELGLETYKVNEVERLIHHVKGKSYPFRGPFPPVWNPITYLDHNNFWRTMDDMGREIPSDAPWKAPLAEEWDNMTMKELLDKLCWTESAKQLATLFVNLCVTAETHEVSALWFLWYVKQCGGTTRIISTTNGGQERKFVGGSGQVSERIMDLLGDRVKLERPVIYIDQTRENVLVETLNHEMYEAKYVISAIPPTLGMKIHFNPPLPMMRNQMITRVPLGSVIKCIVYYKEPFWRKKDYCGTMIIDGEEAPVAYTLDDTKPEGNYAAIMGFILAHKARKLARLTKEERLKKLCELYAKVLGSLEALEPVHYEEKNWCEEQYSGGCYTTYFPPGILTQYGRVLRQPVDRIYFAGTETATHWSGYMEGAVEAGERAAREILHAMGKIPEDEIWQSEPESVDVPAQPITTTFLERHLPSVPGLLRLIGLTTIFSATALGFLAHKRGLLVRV
Excerpt: as §1

[6] = system: serotonin receptor; test: Pilot in vitro serotonin receptor binding (data not shown); settings: pilot study in vitro
[7] = system: MAO-A and MAO-B; design: method as in Fisar et al., 2010; settings: crude pig brain mitochondrial fractions ref Fisar et al., 2010; cited from earlier work
[8] = system: MAO-A and MAO-B; settings: cited from earlier work
[9] = two highest concentrations tested
[10] = all concentrations tested, throughout the test period

C#CCN(C)CCCOc1ccc(Cl)cc1Cl [Clorgyline, clorgyline hydrochloride, reference compound]
NTT time spent at the top and bottom ([1]; 10 mg/L): no effect | NTT time spent at the top and bottom ([1]; 30 mg/L): significantly increasing it only during the last 2 min | NTT time spent at the top and bottom ([1]; 100 mg/L): increasing the time spent at the top for almost the entire test period | NTT total distance traveled [1, 9]: significantly reduced | Tolerability in zebrafish ([1]; zebrafish, in vivo): borderline of tolerability

Cc1nccc2c1[nH]c1ccccc12 [Harmane]
IC50 [2]: 50 ± 30 nM | MAO-A selectivity over MAO-B ([2]; from IC50 values): > 2,000 fold | Selectivity between MAO A and B [2]: only MAO A selective inhibitor | Brain level relative to the rest of compounds tested [3]: approximately 10 fold | NTT time spent at the top and bottom ([1]; 1 mg/L): increased the time spent at the top and decreased the time spent at the bottom during the first minute | NTT time spent at the top and bottom ([1]; 3 mg/L): increased the time spent at the top and decreased the time spent at the bottom during the first minute | NTT time spent at the top and bottom ([1]; 10 mg/L): no effect | NTT total distance traveled [1, 10]: significantly reduced | NTT freezing time ([1]; highest concentration tested): increased the freezing time during the first 2 min | Norepinephrine transporter binding activity [4]: ~10 µM | IC50 [5]: > 100000 nM | Serotonin receptor binding activity [6]: ~10 µM

c1ccc2c(c1)[nH]c1cnccc12 [Norharmane, norharmane]
NTT time spent at the top and bottom ([1]; 0.3 mg/L): no effect | NTT time spent at the top and bottom ([1]; 1 mg/L): significant effect between 2 and 3 min of the test | NTT time spent at the top and bottom ([1]; 3 mg/L): increased the time spent at the top and decreased the time spent at the bottom during the last 2 min | NTT total distance traveled ([1]; highest concentration tested): significantly reduced | Norepinephrine transporter binding activity [4]: ~10 µM | Serotonin receptor binding activity [6]: ~10 µM

C#CCN(C)Cc1ccccc1 [Pargyline, pargyline hydrochloride]
Difference between the Ki values of MAO-A and MAO-B [7]: 1.4 fold | NTT time spent at the top and bottom ([1]; 10 mg/L): only an anxiogenic-like effect, but only for the first 1 min of the test | NTT total distance traveled [1, 9]: significantly reduced | Difference in Ki values of MAO-A and MAO-B ([8]; recombinant human enzymes ref Oh et al., 2020): > 100 fold | Difference in Ki values of MAO-A and MAO-B ([8]; recombinant human enzymes ref Takao et al., 2019): 21 fold

c1ccc2c(c1)CCNC2 [TIQ, 1,2,3,4-tetrahydroisoquinoline]
NTT time spent at the top and bottom ([1]; 10 mg/L): no effect | NTT time spent at the top and bottom ([1]; 30 mg/L): generally increased and decreased the time spent at the top and bottom, respectively | NTT time spent at the top and bottom ([1]; 100 mg/L): generally increased and decreased the time spent at the top and bottom, respectively | Effect on general movement in NTT ([1]; 10, 30 and 100 mg/L): no observable effect on general movement

CC1=C(C)C(=O)c2cc(C)ccc2C1=O [TMN, 2,3,6-trimethyl-1,4-naphtoquinone]
IC50 ([2]; mean ± SEM, substrate 20 µM, read-out: MAO a IC50): 1140 ± 740 nM | Selectivity between MAO A and B [2]: no selectivity | NTT time spent at the top and bottom ([1]; 10 mg/L): only an anxiogenic-like effect during the last couple of minutes | NTT time spent at the top and bottom ([1]; 30 mg/L): mix of both anxiolytic- and anxiogenic-like behaviors | NTT total distance traveled [1, 10]: significantly reduced | Tolerability in zebrafish ([1]; highest concentrations tested, relatively high number of fish with long freezing): borderline of tolerability | NTT freezing time [1, 9]: increased the freezing time | IC50 [5]: 7140 ± 2290 nM

O=C1CC2(CCCC2)CC(=O)N1CCCCN1CCN(c2ncccn2)CC1 [buspirone, Buspirone hydrochloride, reference compound]
NTT time spent at the top and bottom, treatment effect ([1]; 10, 30 and 100 mg/L, two-way ANOVA): significant treatment effect | Tolerability in zebrafish ([1]; zebrafish, in vivo): borderline of tolerability
